Data on 1 compound can be found in US20060147516A1, “Taste masking system for alprazolam” (CIMA LABS INC., priority 2005, published 2006).

This data set is described as follows: Solubility of alprazolam in ethanol (coating solvent). In kind it is physicochemical. The note with it: at working concentrations in ethanol. The procedure: The resulting particles were discreet, non-tacky and exceptionally workable. By working with various materials, and without wishing to be bound by a particular theory, it was determined that certain drugs react and/or interact with the polymer materials in the taste masking coating material, changing their individual characters rendering the material more tacky. The present invention intends to encompass only those active pharmaceutical ingredients that would not so adversely affect workability so as to prevent their effective use in forming discrete, preferably free flowing, well coated, well characterized solid supports, which may be further coated. Active pharmaceutical ingredients that may be used in addition to alprazolam in accordance with the present invention may include, without limitation, analgesics, anti-inflammatories, antipyretics, antibiotics, antimicrobials, anxiolytics, laxatives, anorexics, antihistamines, antidepressants, antiasthmatics, antidiuretics, antiflatuents, antimigraine agents, antispasmodics, sedatives, antihyperactives, antihypertensives, tranquilizers, decongestants, beta blockers, peptides, proteins, oligonucleotides and other substances of biological origin, and combinations thereof. Also contemplated are the drugs and pharmaceutically active ingredients described in Mantelle, U.S. Pat. No. 5,234,957, in columns 18 through 21. […]

For `Cc1nnc2n1-c1ccc(Cl)cc1C(c1ccccc1)=NC2` [alprazolam], the solubility in ethanol entry is “sparingly soluble”.
